ChEMBL document CHEMBL4680263, “Identification of benzothiazinones containing 2-benzyl-2,7-diazaspiro[3.5]nonane moieties as new antitubercular agents” (Eur J Med Chem, 2020)

What was measured:
[1] = test system: Mycobacterium tuberculosis; assay: Antimycobacterial activity against multidrug resistance Mycobacterium tuberculosis 16883 clinical isolate assessed as inhibition of bacterial growth incubated for 7 days by MABA assay; assay type: functional; conditions: Mycobacterium tuberculosis, 16883, 168 h; time 7 day
[2] = test system: Mycobacterium tuberculosis; assay: Antimycobacterial activity against multidrug resistance Mycobacterium tuberculosis 16995 clinical isolate assessed as inhibition of bacterial growth incubated for 7 days by MABA assay; assay type: functional; conditions: Mycobacterium tuberculosis, 16995, 168 h; time 7 day

Row | Structure (SMILES) | MIC [1] [µg/mL] | MIC [2] [µg/mL]
1 | CC(c1ccc(Cl)cc1)N1CC2(CCN(c3nc(=O)c4cc(C(F)(F)F)cc([N+](=O)[O-])c4s3)CC2)C1 (centres undefined) | < 0.016 | < 0.016
2 | CC(c1ccc(Br)cc1)N1CC2(CCN(c3nc(=O)c4cc(C(F)(F)F)cc([N+](=O)[O-])c4s3)CC2)C1 (centres undefined) | < 0.016 | < 0.016
3 | CC(c1cc(F)cc(F)c1)N1CC2(CCN(c3nc(=O)c4cc(C(F)(F)F)cc([N+](=O)[O-])c4s3)CC2)C1 (centres undefined) | < 0.016 | < 0.016
4 | O=c1nc(N2CCC3(CC2)CN(Cc2cc(F)cc(F)c2)C3)sc2c([N+](=O)[O-])cc(C(F)(F)F)cc12 | < 0.016 | < 0.016
5 | CC(c1cccc(F)c1)N1CC2(CCN(c3nc(=O)c4cc(C(F)(F)F)cc([N+](=O)[O-])c4s3)CC2)C1 (centres undefined) | < 0.016 | < 0.016
6 | O=c1nc(N2CCC3(CC2)CN(Cc2ccc(C(F)(F)F)cc2)C3)sc2c([N+](=O)[O-])cc(C(F)(F)F)cc12 | < 0.016 | < 0.016
7 | CC(c1ccc(F)c(F)c1)N1CC2(CCN(c3nc(=O)c4cc(C(F)(F)F)cc([N+](=O)[O-])c4s3)CC2)C1 (centres undefined) | < 0.016 | < 0.016
8 | CC(c1ccc(F)cc1)N1CC2(CCN(c3nc(=O)c4cc(C(F)(F)F)cc([N+](=O)[O-])c4s3)CC2)C1 (centres undefined) | < 0.016 | < 0.016
9 | CC(c1ccc(Cl)c(F)c1)N1CC2(CCN(c3nc(=O)c4cc(C(F)(F)F)cc([N+](=O)[O-])c4s3)CC2)C1 (centres undefined) | < 0.016 | < 0.016
10 | CC(c1cc(F)c(F)c(F)c1)N1CC2(CCN(c3nc(=O)c4cc(C(F)(F)F)cc([N+](=O)[O-])c4s3)CC2)C1 (centres undefined) | < 0.016 | < 0.016
11 | O=c1nc(N2CCC3(CC2)CN(Cc2ccc(F)cc2)C3)sc2c([N+](=O)[O-])cc(C(F)(F)F)cc12 | < 0.016 | < 0.016
12 | O=c1nc(N2CCC3(CC2)CN(Cc2cccc(F)c2)C3)sc2c([N+](=O)[O-])cc(C(F)(F)F)cc12 | < 0.016 | < 0.016
13 | CC(c1ccc(OC(F)(F)F)cc1)N1CCC2(CC1)CN(c1nc(=O)c3cc(C(F)(F)F)cc([N+](=O)[O-])c3s1)C2 (centres undefined) | < 0.016 | < 0.016
14 | CC(c1ccc(F)c(Cl)c1)N1CC2(CCN(c3nc(=O)c4cc(C(F)(F)F)cc([N+](=O)[O-])c4s3)CC2)C1 (centres undefined) | < 0.016 | < 0.016
15 | CC(c1ccc(OC(F)(F)F)cc1)N1CC2(CCN(c3nc(=O)c4cc(C(F)(F)F)cc([N+](=O)[O-])c4s3)CC2)C1 (centres undefined) | < 0.016 | < 0.016
16 | O=c1nc(N2CCC3(CC2)CN(Cc2ccc(OC(F)(F)F)cc2)C3)sc2c([N+](=O)[O-])cc(C(F)(F)F)cc12 | < 0.016 | < 0.016
17 | CC(c1ccc(F)cc1F)N1CC2(CCN(c3nc(=O)c4cc(C(F)(F)F)cc([N+](=O)[O-])c4s3)CC2)C1 (centres undefined) | < 0.016 | < 0.016
18 | CC(c1ccc(C(F)(F)F)cc1)N1CC2(CCN(c3nc(=O)c4cc(C(F)(F)F)cc([N+](=O)[O-])c4s3)CC2)C1 (centres undefined) | < 0.016 | < 0.016
19 | O=c1nc(N2CCC3(CC2)CN(Cc2ccc(Br)cc2)C3)sc2c([N+](=O)[O-])cc(C(F)(F)F)cc12 | < 0.016 | < 0.016
20 | NNC(=O)c1ccncc1 [ISONIAZID] | > 10 | > 10
21 | O=c1nc(N2CCN(CC3CCCCC3)CC2)sc2c([N+](=O)[O-])cc(C(F)(F)F)cc12 [MACOZINONE] | < 0.016 | < 0.016
22 | CO[C@H]1/C=C/O[C@@]2(C)Oc3c(C)c(O)c4c(O)c(c(/C=N/N5CCN(C)CC5)c(O)c4c3C2=O)NC(=O)/C(C)=C\C=C\[C@H](C)[C@H](O)[C@@H](C)[C@@H](O)[C@@H](C)[C@H](OC(C)=O)[C@@H]1C [RIFAMPIN] | > 10 | > 10
